Converted amounts (≈) assume the structure as drawn.
How the values were obtained:
Type in all cases: functional
[1] = system: Mycoplasma genitalium; assay: Antibacterial activity against Mycoplasma genitalium by broth dilution method; settings: Mycoplasmoides genitalium; for MIC50: read-out: MIC50; for MIC90: read-out: MIC90
[2] = system: Mycoplasma genitalium; assay: Antibacterial activity against Mycoplasma genitalium by quantitative TaqMan PCR method; settings: Mycoplasmoides genitalium
[3] = system: Mycoplasma genitalium; assay: Antibacterial activity against Mycoplasma genitalium G37 by broth dilution method; settings: Mycoplasmoides genitalium, read-out: MIC
[4] = system: Mycoplasma genitalium; assay: Antibacterial activity against Mycoplasma genitalium M30 by broth dilution method; settings: Mycoplasmoides genitalium, read-out: MIC
[5] = system: Mycoplasma genitalium; assay: Antibacterial activity against Mycoplasma genitalium R32 by broth dilution method; settings: Mycoplasmoides genitalium, read-out: MIC
[6] = system: Mycoplasma genitalium; assay: Antibacterial activity against Mycoplasma genitalium TW10-5G by broth dilution method; settings: Mycoplasmoides genitalium, read-out: MIC
[7] = system: Mycoplasma genitalium; assay: Antibacterial activity against Mycoplasma genitalium TW10-6G by broth dilution method; settings: Mycoplasmoides genitalium, read-out: MIC
[8] = system: Mycoplasma genitalium; assay: Antibacterial activity against Mycoplasma genitalium TW48-5G by broth dilution method; settings: Mycoplasmoides genitalium, read-out: MIC
[9] = system: Mycoplasma genitalium; assay: Antibacterial activity against Mycoplasma genitalium UTMB-10G by broth dilution method; settings: Mycoplasmoides genitalium, read-out: MIC
[10] = system: Mycoplasma genitalium; assay: Antibacterial activity against Mycoplasma genitalium M2282 by broth dilution method; settings: Mycoplasmoides genitalium
[11] = system: Mycoplasma genitalium; assay: Antibacterial activity against Mycoplasma genitalium M2300 by broth dilution method; settings: Mycoplasmoides genitalium
[12] = system: Mycoplasma genitalium; assay: Antibacterial activity against Mycoplasma genitalium M2321 by broth dilution method; settings: Mycoplasmoides genitalium
[13] = system: Mycoplasma genitalium; assay: Antibacterial activity against Mycoplasma genitalium M2341 by broth dilution method; settings: Mycoplasmoides genitalium
[14] = system: Mycoplasma genitalium; assay: Antibacterial activity against Mycoplasma genitalium M6257 by broth dilution method; settings: Mycoplasmoides genitalium
[15] = system: Mycoplasma genitalium; assay: Antibacterial activity against Mycoplasma genitalium M6280 by broth dilution method; settings: Mycoplasmoides genitalium
[16] = system: Mycoplasma genitalium; assay: Antibacterial activity against Mycoplasma genitalium M6285 by broth dilution method; settings: Mycoplasmoides genitalium
[17] = system: Mycoplasma genitalium; assay: Antibacterial activity against Mycoplasma genitalium M6286 by broth dilution method; settings: Mycoplasmoides genitalium
[18] = system: Mycoplasma genitalium; assay: Antibacterial activity against Mycoplasma genitalium M6328 by broth dilution method; settings: Mycoplasmoides genitalium
[19] = system: Mycoplasma genitalium; assay: Antibacterial activity against Mycoplasma genitalium M6090 by broth dilution method; settings: Mycoplasmoides genitalium
[20] = system: Mycoplasma genitalium; assay: Antibacterial activity against Mycoplasma genitalium M6151 by broth dilution method; settings: Mycoplasmoides genitalium
[21] = system: Mycoplasma genitalium; assay: Antibacterial activity against Mycoplasma genitalium M6282 by broth dilution method; settings: Mycoplasmoides genitalium
[22] = system: Mycoplasma genitalium; assay: Antibacterial activity against Mycoplasma genitalium M6283 by broth dilution method; settings: Mycoplasmoides genitalium
[23] = system: Mycoplasma genitalium; assay: Antibacterial activity against Mycoplasma genitalium M6284 by broth dilution method; settings: Mycoplasmoides genitalium
[24] = system: Mycoplasma genitalium; assay: Antibacterial activity against Mycoplasma genitalium M6287 by broth dilution method; settings: Mycoplasmoides genitalium

Row | Structure (SMILES) | MIC50 [1] | MIC90 [1] | MIC [3] | MIC [4] | MIC [5] | MIC [6] | MIC [7] | MIC [8] | MIC [9] | MIC [10] | MIC [11] | MIC [12] | MIC [13] | MIC [14] | MIC [15] | MIC [16] | MIC [17] | MIC [18] | MIC [19] | MIC [20] | also measured
1 | COc1c(N2CCNC(C)C2)c(F)cc2c(=O)c(C(=O)O)cn(C3CC3)c12 (stereo not drawn) [GATIFLOXACIN] | 0.25 µg/mL (≈ 0.666 µM) | 0.25 µg/mL (≈ 0.666 µM) | 0.125 µg/mL (≈ 0.333 µM) | 0.125 µg/mL (≈ 0.333 µM) | 0.125 µg/mL (≈ 0.333 µM) | 0.125 µg/mL (≈ 0.333 µM) | 0.125 µg/mL (≈ 0.333 µM) | 0.125 µg/mL (≈ 0.333 µM) | 0.125 µg/mL (≈ 0.333 µM) | 0.031 µg/mL (≈ 0.0826 µM) | 0.031 µg/mL (≈ 0.0826 µM) | 0.031 µg/mL (≈ 0.0826 µM) | 0.031 µg/mL (≈ 0.0826 µM) | 0.031 µg/mL (≈ 0.0826 µM) | 0.031 µg/mL (≈ 0.0826 µM) | 0.031 µg/mL (≈ 0.0826 µM) | 0.031 µg/mL (≈ 0.0826 µM) | 0.031 µg/mL (≈ 0.0826 µM) | 0.031 µg/mL (≈ 0.0826 µM) | 0.031 µg/mL (≈ 0.0826 µM) | MIC50 [2]: 0.5 µg/mL (≈ 1.33 µM); MIC90 [2]: 0.5 µg/mL (≈ 1.33 µM); MIC [21]: 0.031 µg/mL (≈ 0.0826 µM); MIC [22]: 0.031 µg/mL (≈ 0.0826 µM); MIC [23]: 0.031 µg/mL (≈ 0.0826 µM); MIC [24]: 0.031 µg/mL (≈ 0.0826 µM)
2 | C[C@H]1COc2c(N3CCN(C)CC3)c(F)cc3c(=O)c(C(=O)O)cn1c23.C[C@H]1COc2c(N3CCN(C)CC3)c(F)cc3c(=O)c(C(=O)O)cn1c23.O [LEVOFLOXACIN] | 1 µg/mL | 2 µg/mL | 1 µg/mL | 1 µg/mL | 1 µg/mL | 1 µg/mL | 1 µg/mL | 1 µg/mL | 1 µg/mL | 0.125 µg/mL | 0.125 µg/mL | 0.125 µg/mL | 0.125 µg/mL | 0.125 µg/mL | 0.125 µg/mL | 0.125 µg/mL | 0.125 µg/mL | 0.125 µg/mL | 0.125 µg/mL | 0.125 µg/mL | MIC50 [2]: 1 µg/mL; MIC90 [2]: 4 µg/mL; MIC [21]: 0.125 µg/mL; MIC [22]: 0.125 µg/mL; MIC [23]: 0.125 µg/mL; MIC [24]: 0.125 µg/mL
3 | CN(C)c1ccc(O)c2c1C[C@H]1C[C@H]3[C@H](N(C)C)C(O)=C(C(N)=O)C(=O)[C@@]3(O)C(O)=C1C2=O [MINOCYCLINE] | 0.125 µg/mL (≈ 0.273 µM) | 0.25 µg/mL (≈ 0.546 µM) | 0.031 µg/mL (≈ 0.0678 µM) | 0.031 µg/mL (≈ 0.0678 µM) | 0.031 µg/mL (≈ 0.0678 µM) | 0.031 µg/mL (≈ 0.0678 µM) | 0.031 µg/mL (≈ 0.0678 µM) | 0.031 µg/mL (≈ 0.0678 µM) | 0.031 µg/mL (≈ 0.0678 µM) | 0.063 µg/mL (≈ 0.138 µM) | 0.063 µg/mL (≈ 0.138 µM) | 0.063 µg/mL (≈ 0.138 µM) | 0.063 µg/mL (≈ 0.138 µM) | 0.063 µg/mL (≈ 0.138 µM) | 0.063 µg/mL (≈ 0.138 µM) | 0.063 µg/mL (≈ 0.138 µM) | 0.063 µg/mL (≈ 0.138 µM) | 0.063 µg/mL (≈ 0.138 µM) | 0.063 µg/mL (≈ 0.138 µM) | 0.063 µg/mL (≈ 0.138 µM) | MIC [21]: 0.063 µg/mL (≈ 0.138 µM); MIC [22]: 0.063 µg/mL (≈ 0.138 µM); MIC [23]: 0.063 µg/mL (≈ 0.138 µM); MIC [24]: 0.063 µg/mL (≈ 0.138 µM)
4 | COc1c(N2C[C@@H]3CCCN[C@@H]3C2)c(F)cc2c(=O)c(C(=O)O)cn(C3CC3)c12 [MOXIFLOXACIN] | 0.063 µg/mL (≈ 0.157 µM) | 0.125 µg/mL (≈ 0.311 µM) | 0.063 µg/mL (≈ 0.157 µM) | 0.063 µg/mL (≈ 0.157 µM) | 0.063 µg/mL (≈ 0.157 µM) | 0.063 µg/mL (≈ 0.157 µM) | 0.063 µg/mL (≈ 0.157 µM) | 0.063 µg/mL (≈ 0.157 µM) | 0.063 µg/mL (≈ 0.157 µM) | 0.016 µg/mL (≈ 0.0399 µM) | 0.016 µg/mL (≈ 0.0399 µM) | 0.016 µg/mL (≈ 0.0399 µM) | 0.016 µg/mL (≈ 0.0399 µM) | 0.016 µg/mL (≈ 0.0399 µM) | 0.016 µg/mL (≈ 0.0399 µM) | 0.016 µg/mL (≈ 0.0399 µM) | 0.016 µg/mL (≈ 0.0399 µM) | 0.016 µg/mL (≈ 0.0399 µM) | 0.016 µg/mL (≈ 0.0399 µM) | 0.016 µg/mL (≈ 0.0399 µM) | MIC50 [2]: 0.063 µg/mL (≈ 0.157 µM); MIC90 [2]: 0.125 µg/mL (≈ 0.311 µM); MIC [21]: 0.016 µg/mL (≈ 0.0399 µM); MIC [22]: 0.016 µg/mL (≈ 0.0399 µM); MIC [23]: 0.016 µg/mL (≈ 0.0399 µM); MIC [24]: 0.016 µg/mL (≈ 0.0399 µM)
5 | CCn1cc(C(=O)O)c(=O)c2cc(F)c(N3CCNCC3)cc21 [NORFLOXACIN] | 0.032 µg/mL (≈ 0.1 µM) | 0.064 µg/mL (≈ 0.2 µM) | 0.032 µg/mL (≈ 0.1 µM) | 0.032 µg/mL (≈ 0.1 µM) | 0.032 µg/mL (≈ 0.1 µM) | 0.032 µg/mL (≈ 0.1 µM) | 0.032 µg/mL (≈ 0.1 µM) | 0.032 µg/mL (≈ 0.1 µM) | 0.032 µg/mL (≈ 0.1 µM) | 0.001 µg/mL (≈ 0.00313 µM) | 0.001 µg/mL (≈ 0.00313 µM) | 0.001 µg/mL (≈ 0.00313 µM) | 0.001 µg/mL (≈ 0.00313 µM) | 0.001 µg/mL (≈ 0.00313 µM) | 0.001 µg/mL (≈ 0.00313 µM) | 0.001 µg/mL (≈ 0.00313 µM) | 0.001 µg/mL (≈ 0.00313 µM) | 0.001 µg/mL (≈ 0.00313 µM) | 0.001 µg/mL (≈ 0.00313 µM) | 0.001 µg/mL (≈ 0.00313 µM) | MIC50 [2]: ≥ 8 µg/mL; MIC90 [2]: ≥ 8 µg/mL; MIC [21]: 0.001 µg/mL (≈ 0.00313 µM); MIC [22]: 0.001 µg/mL (≈ 0.00313 µM); MIC [23]: 0.001 µg/mL (≈ 0.00313 µM); MIC [24]: 0.001 µg/mL (≈ 0.00313 µM)
